Results on 18 compounds are retold here after patent publication US20260015358A1, “BICYCLIC DERIVATIVES, COMPOSITIONS AND USES THEREOF” (Danatlas Pharmaceuticals Co., Ltd., priority 2023, published 2026).

The target in test [1] is T1, WRN [UniPro: Q14191 (WRN_HUMAN), N500-C946] (Homo sapiens (Human), UniProt Q14191). Put plainly: WRN ATPase assay (ADP-Glo). The class given is biochemical. To be noted: WRN enzymatic activity assay. In general terms: In ADP-Glo the light output rises with the ADP produced.
T1 sequence (Q14191 500-946): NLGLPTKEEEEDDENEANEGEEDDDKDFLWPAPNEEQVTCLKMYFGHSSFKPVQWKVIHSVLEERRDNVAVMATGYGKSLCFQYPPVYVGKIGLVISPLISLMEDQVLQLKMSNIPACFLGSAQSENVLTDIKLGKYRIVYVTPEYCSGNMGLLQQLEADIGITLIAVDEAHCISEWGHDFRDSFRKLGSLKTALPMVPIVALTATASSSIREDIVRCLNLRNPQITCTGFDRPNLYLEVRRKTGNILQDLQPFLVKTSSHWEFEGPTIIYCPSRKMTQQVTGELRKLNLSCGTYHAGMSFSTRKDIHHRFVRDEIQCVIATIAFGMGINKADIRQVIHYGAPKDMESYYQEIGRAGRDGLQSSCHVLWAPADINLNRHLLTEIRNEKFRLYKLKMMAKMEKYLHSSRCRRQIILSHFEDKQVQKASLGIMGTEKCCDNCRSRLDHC
Test [2] concerns the target T1, WRN [UniPro: Q14191 (WRN_HUMAN), N500-C946]. Put plainly: WRN unwinding assay (FORKF DNA, fluorescence). Format: biochemical. To be noted: Table 14.

pIC50: −log10 of the molar value.

The term pIC50 denotes −log10 of the IC50, conventionally taken in molar units. Turning to `CCc1c(N2CCN(C(=O)c3cnn4cccc4c3O)CC2)c(=O)n2nc(C3=CCOCC3)nc2n1CC(=O)Nc1ccc(C(F)(F)F)cc1F` [Example 318, 2-(2-(3,6-Dihydro-2H-pyran-4-yl)-5-ethyl-6-(4-(4-hydroxypyrrolo[1,2-b]pyridazine-3-carbonyl)piperazin-1-yl)-7-oxo-[1,2,4]triazolo[1,5-a]pyrimidin-4(7H)-yl)-N-(2-fluoro-4-(trifluoromethyl)phenyl)acetamide], the pIC50 in test [1] and in test [2] was over 7.00 each time.

For `CCc1c(N2CCN(C(=O)CNC(=O)c3c(F)cccc3Cl)CC2)c(=O)n2nc(C3=CCOCC3)nc2n1CC(=O)Nc1ccc(C(F)(F)F)cc1Cl` [Example 319, 2-Chloro-N-(2-(4-(4-(2-((2-chloro-4-(trifluoromethyl)phenyl)amino)-2-oxoethyl)-2-(3,6-dihydro-2H-pyran-4-yl)-5-ethyl-7-oxo-4,7-dihydro-[1,2,4]triazolo[1,5-a]pyrimidin-6-yl)piperazin-1-yl)-2-oxoethyl)-6-fluorobenzamide], the pIC50 in test [1] and in test [2] was over 7.00 each time.

As for `CCc1c(N2CCN(C(=O)CNC(=O)CC(C)C)CC2)c(=O)n2nc(C3=CCOCC3)nc2n1CC(=O)Nc1ccc(C(F)(F)F)cc1Cl` [Example 320, N-(2-(4-(4-(2-((2-Chloro-4-(Trifluoromethyl)phenyl)amino)-2-oxoethyl)-2-(3,6-dihydro-2H-pyran-4-yl)-5-ethyl-7-oxo-4,7-dihydro-[1,2,4]triazolo[1,5-a]pyrimidin-6-yl)piperazin-1-yl)-2-oxoethyl)-3-methylbutanamide], the pIC50 in test [1] and in test [2] was over 7.00 in each case.

Take `CCc1c(N2CCN(C(=O)CNC(=O)[C@H]3CCCO3)CC2)c(=O)n2nc(C3=CCOCC3)nc2n1CC(=O)Nc1ccc(C(F)(F)F)cc1Cl` [Example 321, (R)—N-(2-(4-(4-(2-((2-Chloro-4-(trifluoromethyl)phenyl)amino)-2-oxoethyl)-2-(3,6-dihydro-2H-pyran-4-yl)-5-ethyl-7-oxo-4,7-dihydro-[1,2,4]triazolo[1,5-a]pyrimidin-6-yl)piperazin-1-yl)-2-oxoethyl)tetrahydrofuran-2-carboxamide]: the pIC50 in test [1] was 6.00 to 7.00; in test [2] it was over 7.00.

On to `CCc1c(N2CCN(C(=O)CNC(=O)[C@@H]3CCCO3)CC2)c(=O)n2nc(C3=CCOCC3)nc2n1CC(=O)Nc1ccc(C(F)(F)F)cc1Cl` [Example 322, (S)—N-(2-(4-(4-(2-((2-Chloro-4-(trifluoromethyl)phenyl)amino)-2-oxoethyl)-2-(3,6-dihydro-2H-pyran-4-yl)-5-ethyl-7-oxo-4,7-dihydro-[1,2,4]triazolo[1,5-a]pyrimidin-6-yl)piperazin-1-yl)-2-oxoethyl)tetrahydrofuran-2-carboxamide], for which the pIC50 in test [1] and in test [2] was over 7.00 throughout.

For `CCc1c(N2CCN(C(=O)CN(C)C(C)=O)CC2)c(=O)n2nc(C3=CCOCC3)nc2n1CC(=O)Nc1ccc(C(F)(F)F)cc1Cl` [Example 323, 2-(6-(4-(N-Acetyl-N-methylglycyl)piperazin-1-yl)-2-(3,6-dihydro-2H-pyran-4-yl)-5-ethyl-7-oxo-[1,2,4]triazolo[1,5-a]pyrimidin-4(7H)-yl)-N-(2-chloro-4-(trifluoromethyl)phenyl)acetamide], the pIC50 in test [1] and in test [2] was 6.00 to 7.00 in each case.

`CCc1c(N2CCN(C(=O)C(=O)Nc3cc(C)no3)CC2)c(=O)n2nc(C3=CCOCC3)nc2n1CC(=O)Nc1ccc(C(F)(F)F)cc1F` [Example 324, 2-(4-(2-(3,6-Dihydro-2H-pyran-4-yl)-5-ethyl-4-(2-((2-fluoro-4-(trifluoromethyl)phenyl)amino)-2-oxoethyl)-7-oxo-4,7-dihydro-[1,2,4]triazolo[1,5-a]pyrimidin-6-yl)piperazin-1-yl)-N-(3-methylisoxazol-5-yl)-2-oxoacetamide]: the pIC50 in test [1] and in test [2] was over 7.00 in each case.

`CCc1c(N2CCN(C(=O)C(=O)Nc3cc(C)ns3)CC2)c(=O)n2nc(C3=CCOCC3)nc2n1CC(=O)Nc1ccc(C(F)(F)F)cc1F` [Example 325, 2-(4-(2-(3,6-Dihydro-2H-pyran-4-yl)-5-ethyl-4-(2-((2-fluoro-4-(trifluoromethyl)phenyl)amino)-2-oxoethyl)-7-oxo-4,7-dihydro-[1,2,4]triazolo[1,5-a]pyrimidin-6-yl)piperazin-1-yl)-N-(3-methylisothiazol-5-yl)-2-oxoacetamide]: the pIC50 in test [1] and in test [2] was over 7.00 throughout.

As for `CCc1c(N2CCN(C(=O)C(=O)N(C)C)CC2)c(=O)n2nc(C3=CCOCC3)nc2n1CC(=O)Nc1ccc(C(F)(F)F)cc1Cl` [Example 326, 2-(4-(4-(2-((2-Chloro-4-(trifluoromethyl)phenyl)amino)-2-oxoethyl)-2-(3,6-dihydro-2H-pyran-4-yl)-5-ethyl-7-oxo-4,7-dihydro-[1,2,4]triazolo[1,5-a]pyrimidin-6-yl)piperazin-1-yl)-N,N-dimethyl-2-oxoacetamide], the values for the pIC50 in test [1] and in test [2] were 6.00 to 7.00 and over 7.00, respectively.

In the case of `CCc1c(N2CCN(C(=O)C(=O)Nc3ccccc3)CC2)c(=O)n2nc(C3=CCOCC3)nc2n1CC(=O)Nc1ccc(C(F)(F)F)cc1Cl` [Example 327, 2-(4-(4-(2-((2-Chloro-4-(trifluoromethyl)phenyl)amino)-2-oxoethyl)-2-(3,6-dihydro-2H-pyran-4-yl)-5-ethyl-7-oxo-4,7-dihydro-[1,2,4]triazolo[1,5-a]pyrimidin-6-yl)piperazin-1-yl)-2-oxo-N-phenylacetamide], the pIC50 in test [1] and in test [2] was 6.00 to 7.00 throughout.

In the case of `CCc1c(N2CCN(C(=O)C(=O)NC)CC2)c(=O)n2nc(C3=CCOCC3)nc2n1CC(=O)Nc1ccc(C(F)(F)F)cc1Cl` [Example 329, 2-(4-(4-(2-((2-Chloro-4-(trifluoromethyl)phenyl)amino)-2-oxoethyl)-2-(3,6-dihydro-2H-pyran-4-yl)-5-ethyl-7-oxo-4,7-dihydro-[1,2,4]triazolo[1,5-a]pyrimidin-6-yl)piperazin-1-yl)-N-methyl-2-oxoacetamide], the pIC50 in test [1] and in test [2] was 6.00 to 7.00 each time.

As for `CCc1c(N2CCN(C(=O)C(=O)NOC)CC2)c(=O)n2nc(C3=CCOCC3)nc2n1CC(=O)Nc1ccc(C(F)(F)F)cc1Cl` [Example 330, 2-(4-(4-(2-((2-Chloro-4-(trifluoromethyl)phenyl)amino)-2-oxoethyl)-2-(3,6-dihydro-2H-pyran-4-yl)-5-ethyl-7-oxo-4,7-dihydro-[1,2,4]triazolo[1,5-a]pyrimidin-6-yl)piperazin-1-yl)-N-methoxy-2-oxoacetamide], the pIC50 in test [1] and in test [2] was over 7.00 each time.

Regarding `CCc1c(N2CCN(C(=O)C(=O)Nc3cc(C)[nH]n3)CC2)c(=O)n2nc(C3=CCOCC3)nc2n1CC(=O)Nc1ccc(C(F)(F)F)cc1Cl` [Example 331, 2-(4-(4-(2-((2-Chloro-4-(trifluoromethyl)phenyl)amino)-2-oxoethyl)-2-(3,6-dihydro-2H-pyran-4-yl)-5-ethyl-7-oxo-4,7-dihydro-[1,2,4]triazolo[1,5-a]pyrimidin-6-yl)piperazin-1-yl)-N-(5-methyl-1H-pyrazol-3-yl)-2-oxoacetamide], the pIC50 in test [1] and in test [2] was over 7.00 in each case.

Consider `CCc1c(N2CCN(C(=O)C(=O)Nc3nccs3)CC2)c(=O)n2nc(C3=CCOCC3)nc2n1CC(=O)Nc1ccc(C(F)(F)F)cc1Cl` [Example 332, 2-(4-(4-(2-((2-Chloro-4-(trifluoromethyl)phenyl)amino)-2-oxoethyl)-2-(3,6-dihydro-2H-pyran-4-yl)-5-ethyl-7-oxo-4,7-dihydro-[1,2,4]triazolo[1,5-a]pyrimidin-6-yl)piperazin-1-yl)-2-oxo-N-(thiazol-2-yl)acetamide], for which the pIC50 in test [1] and in test [2] was over 7.00 throughout.

`CCc1c(N2CCN(C(=O)C(=O)Nc3ccn[nH]3)CC2)c(=O)n2nc(C3=CCOCC3)nc2n1CC(=O)Nc1ccc(C(F)(F)F)cc1Cl` [Example 333, 2-(4-(4-(2-((2-Chloro-4-(trifluoromethyl)phenyl)amino)-2-oxoethyl)-2-(3,6-dihydro-2H-pyran-4-yl)-5-ethyl-7-oxo-4,7-dihydro-[1,2,4]triazolo[1,5-a]pyrimidin-6-yl)piperazin-1-yl)-2-oxo-N-(1H-pyrazol-5-yl)acetamide]: the pIC50 in test [1] and in test [2] was over 7.00 throughout.

Regarding `CCc1c(N2CCN(C(=O)C(=O)Nc3cncs3)CC2)c(=O)n2nc(C3=CCOCC3)nc2n1CC(=O)Nc1ccc(C(F)(F)F)cc1Cl` [Example 334, 2-(4-(4-(2-((2-Chloro-4-(trifluoromethyl)phenyl)amino)-2-oxoethyl)-2-(3,6-dihydro-2H-pyran-4-yl)-5-ethyl-7-oxo-4,7-dihydro-[1,2,4]triazolo[1,5-a]pyrimidin-6-yl)piperazin-1-yl)-2-oxo-N-(thiazol-5-yl)acetamide], the pIC50 in test [1] and in test [2] was over 7.00 throughout.

Consider `CCc1c(N2CCN(C(=O)C(=O)Nc3cscn3)CC2)c(=O)n2nc(C3=CCOCC3)nc2n1CC(=O)Nc1ccc(C(F)(F)F)cc1Cl` [Example 335, 2-(4-(4-(2-((2-Chloro-4-(trifluoromethyl)phenyl)amino)-2-oxoethyl)-2-(3,6-dihydro-2H-pyran-4-yl)-5-ethyl-7-oxo-4,7-dihydro-[1,2,4]triazolo[1,5-a]pyrimidin-6-yl)piperazin-1-yl)-2-oxo-N-(thiazol-4-yl)acetamide], for which the results for the pIC50 in test [1] and in test [2] were 6.00 to 7.00 and over 7.00, respectively.

Turning to `CCNC(=O)C(=O)N1CCN(c2c(CC)n(CC(=O)Nc3ccc(C(F)(F)F)cc3Cl)c3nc(C4=CCOCC4)nn3c2=O)CC1` [Example 336, 2-(4-(4-(2-((2-Chloro-4-(trifluoromethyl)phenyl)amino)-2-oxoethyl)-2-(3,6-dihydro-2H-pyran-4-yl)-5-ethyl-7-oxo-4,7-dihydro-[1,2,4]triazolo[1,5-a]pyrimidin-6-yl)piperazin-1-yl)-N-ethyl-2-oxoacetamide], the pIC50 in test [1] and in test [2] was 6.00 to 7.00 each time.
